From US6645529B2, “Instant granules and process for their formulation” (Dr. Gergely & Co., priority 2000, dated 2003)

Tests used:
bulk density = assay type: physicochemical; conditions: for bulk density (g/100 ml): Table 1, preferred carrier materials; for Bulk density in g/100 ml: Table 3, carrier materials
[1] = dissolving times of different carrier materials; assay type: physicochemical; conditions: 10 g in 100 ml water of 17° C., stirred at 500 rpm, visual
Procedure: Testing conditions: 10 g of each carrier material was added to 100 ml water of 17° C. in a 400 ml beaker and stirred at 500 rpm by a magnetic stirrer. Dissolution was determined visually.

[2] = listed as mannitol (fine granulated)

bulk density (g/100 ml) (bulk density) | Bulk density in g/100 ml (bulk density) [g/100 ml] | Dissolving time [1] [s] | Bulk density in g/100 ml (bulk density; [2]) [g/100 ml] | Dissolving time [1, 2] [s] | Compound
81 |  |  |  |  | OC[C@H]1O[C@@](CO)(O[C@H]2O[C@H](CO)[C@@H](O)[C@H](O)[C@H]2O)[C@@H](O)[C@@H]1O [saccharose (fine grain), saccharose]
58 | 58 | 90 |  |  | OC[C@@H](O)[C@@H](O)[C@H](O)[C@@H](O)CO [sorbitol]
88 |  |  |  |  | OC[C@H]1O[C@@](CO)(O[C@H]2O[C@H](CO)[C@@H](O)[C@H](O)[C@H]2O)[C@@H](O)[C@@H]1O [saccharose (coarse grain), saccharose]
95 | 95 | 85 |  |  | O.O.O=C([O-])CC(O)(CC(=O)[O-])C(=O)[O-].[Na+].[Na+].[Na+] [trisodiumcitrate.2H2O]
45 | 45 | 50 |  |  | OC[C@@H](O)[C@@H](O)[C@H](O)[C@@H](O)CO [sorbitol (spray dried), sorbitol]

The remaining lines, values behind:

Compound | bulk density (g/100 ml) (bulk density) | Bulk density in g/100 ml (bulk density) [g/100 ml] | Dissolving time [1] [s] | Bulk density in g/100 ml (bulk density; [2]) [g/100 ml] | Dissolving time [1, 2] [s]
O.O=P([O-])(O)O.O=P([O-])(O)O.[Ca+2] [monocalcium phosphate.H2O] | 82 |  |  |  | 
OC[C@@H](O)[C@@H](O)[C@H](O)[C@H](O)CO [mannitol (spray dried), mannitol] | 45 | 45 | 55 |  | 
OC[C@H]1O[C@@](CO)(O[C@H]2O[C@H](CO)[C@@H](O)[C@H](O)[C@H]2O)[C@@H](O)[C@@H]1O [instant sugar] | 50 | 45 | 15 |  | 
OC[C@@H](O)[C@@H](O[C@H]1O[C@H](CO)[C@@H](O)[C@H](O)[C@H]1O)[C@H](O)[C@@H](O)CO [hydrogenated maltose] | 90 | 90 | 200 |  | 
OC[C@H]1O[C@@H](O[C@H]2[C@H](O)[C@@H](O)C(O)O[C@@H]2CO)[C@H](O)[C@@H](O)[C@H]1O (stereo partly drawn) [lactose] | 69 | 69 | 120 |  | 
OC[C@@H](O)[C@@H](O)[C@H](O)[C@H](O)CO [mannitol] | 63 |  |  | 62 | 95
